Reference: US12214076B2, “Drug delivery vehicles for atherosclerosis nanomedicine” (Northwestern University, priority 2019, dated 2025)
Peptide text beside a SMILES is read from it. * marks the point of attachment. Palmitoyl = CCCCCCCCCCCCCCCC(=O)*

Legend:
[1] = TEM characterization of PA nanofibers for diameter and length (Example 3); assay type: physicochemical; conditions: 30 measurements from three images
Description: Samples at 1 mM in PBS were prepared for TEM by plating on copper supports covered with thin carbon foil 400-mesh that were treated with glow discharge. […] Due to the overlapping fibers, automated tools including FiberApp could not be used to analyze the nanofibers. Instead, the TEM images were analyzed manually for nanofiber diameter and length using ImageJ software. Cryogenic TEM of samples was also performed using a JEOL 1230 at 100 kV accelerating voltage and Gatan 831 CCD camera. […] Samples were prepared at 1 mM in PBS blotted once for 3 seconds before plunging into liquid ethane using a Vitrobot Mark III (FEI) vitrification robot.

[2] = Off-target localization in internal organs, fluorescent pixel analysis; assay type: in vivo, mouse
Description: Dose and concentration study: To determine the optimum concentration for targeting efficacy and safety, LDLR KO mice fed the high fat diet for 14 weeks were injected with PA nanofiber at concentrations of 1 mg/mL, 2 mg/mL, and 4 mg/mL at 8 mg/kg in PBS. Similarly, to determine the optimum dose for targeting efficacy and safety, LDLR KO mice fed the high fat diet for 14 weeks were injected at PA nanofiber doses of 8 mg/kg, 6 mg/kg, 4 mg/kg, 3.3 mg/kg, and 1.7 mg/kg at 2 mg/mL in PBS. Safety, optimum dose, and concentration for targeting was assessed by survival of the animal and fluorescent pixel quantification in the aortic root, liver, lungs, kidneys, and spleen.
Tissue processing and imaging: Mice were sacrificed and euthanized under inhaled isoflurane anesthesia by diaphragm disruption and exsanguination. Phlebotomy was performed through direct right ventricular cardiac puncture using a 1 mL syringe and 25 G needle. Perfusion was performed through left ventricular cardiac puncture with 10 mL PBS and 10 mL 10% sucrose solution. The lungs, liver, spleen, kidney, aortic root, aortic arch, and descending aorta were harvested and stored in 10% sucrose for 20 minutes. Organs and vessels were then flash-frozen in Optimal Cutting Temperature embedding medium 4583 (Tissue-Tek®) with liquid nitrogen. Frozen specimens were stored at −80° C. and cryosectioned at […]. Confocal microscopy was performed on a Nikon AIR microscope. Two sets of images were acquired with a 10× Plan Fluor NA 0.3 objective. PAs were identified through quantification of the Alexa Fluor® 546 conjugated dye with 561 nm excitation and a 600/50 nm emission filter.
Images were acquired with spectral detection and spectrally unmixed to accurately separate green autofluorescence from the red Alexa Fluor® 546 signal. […] Slides were stained with Oil Red O to image and quantify atherosclerosis under brightfield microscopy. […] Fluorescent pixel quantification in the aortic root and within organs was performed with ImageJ software.

[3] = test system: inducible nitric oxide synthase (iNOS); test: iNOS expression by flow cytometry; assay type: cell-based, mouse; conditions: vs. stimulated control
J774.2 macrophages = test: Cellular uptake and localization of ApoA1-Ac2-26 PA; assay type: cell-based, mouse
Description: Cellular uptake and localization of ApoA1-Ac2-26 PA: PAs containing 40 mol % ApoA1 PA, 10 mol % MMP-Ac2-26 or ROS-Ac2-26 PA, 45.5 mol % E2 filler PA, and 4.5 mol % E2 filler PA with AF546 were co-assembled as described above and aged at least 1 week in PBS at 4° C. to promote nanofiber formation. Macrophages were seeded onto 6-channel μ-Slide VI 0.4 (ibidi) at 2.1×10^5 cells/cm^2 and allowed to adhere for 24 hours before adding 0.33 μM 10% MMP- or ROS-Ac2-26 PA and incubated at 37° C. for 1 or 24 hours. At each time point, the samples were fixed with 4% paraformaldehyde for 10 minutes, followed by permeabilization with 0.125% Triton-X for 10 minutes. The samples were rinsed twice with PBS and incubated with blocking buffer consisting of 2% w/v BSA for one hour at room temperature before incubating with 20 μg/mL LAMP1 antibody (rabbit polyclonal, abcam) for 12-18 hours at 4° C. The samples were rinsed twice with PBS containing 0.01% Tween-20 at one hour per rinse followed by an hour rinse with PBS before adding 2 μg/mL donkey anti-rabbit Alexa Fluor Plus 647 (Highly cross-adsorbed secondary antibody, Invitrogen) for 12-18 hours at 4° C. The samples were rinsed twice with PBS before adding 5 μg/mL 4′,6-Diamidino-2-Phenylindole (DAPI, ThermoFisher Scientific) and phalloidin (1:1000 dilution, CruzFluor™ 488 conjugate, Santa Cruz Biotechnology) for one hour at room temperature. Samples were rinsed and stored in PBS until image analysis. Microscopy was performed using Zeiss 880 confocal microscopy at 63× magnification with numerical aperture of 1.4. Lasers at 405, 488, 561, and 633 nm were used to collect images through Multi Channel acquisition, which uses a separate scan for each channel to avoid spectral overlap. 3D images were created using z-stacks with 9-14 μm thick sections compiled from 0.22 μm slices using a line step of 1, speed of 8, and image size of 1024×1024 pixels at 16 bit depth. To examine colocalization of PAs to endosomes/lysosomes, Manders coefficient calculations using the Coloc 2 plugin from Fiji were used.

[4] = Small angle x-ray scattering (SAXS) of PA nanofibers; assay type: physicochemical
Description: Small angle x-ray scattering (SAXS): SAXS characterization of the PA nanofibers was performed at the Advanced Photon Source in the Argonne National Laboratory on beamline 5-ID-D, DuPont-Northwestern-Dow Collaborative Access Team Synchrotron Research Center. Samples were prepared at 5 mM in PBS solution, aged at least 24 hours at 4° C., and analyzed in 1.5 mm quartz capillaries (Charles Supper) at 17 keV with a charged couple device photon detector located 245 cm behind the sample. Scattering intensities were collected using wave vector q range of 0.0024 to 0.40 Å^−1. q represents the scattering vector and is calculated as q=4π sin (θ)/λ, with θ as the scattering angle between the incident beam and detector and […] the X-ray wavelength. The plots of scattering intensity versus q were obtained using NIST software Igor Pro v8. The scattering intensities of PBS were subtracted from the PA samples using the Irena SAS macro, and the resulting plots were fitted using NCNR Analysis macro to a polydisperse core shell cylinder model.

For `CCCCCCCCCCCCCCCC(=O)N[C@H](C(=O)N[C@H](C(=O)N[C@@H](C)C(=O)N[C@@H](C)C(=O)N[C@@H](CCC(=O)O)C(=O)N[C@@H](CCC(=O)O)C(=O)NCC(=O)N[C@@H](CC(=O)O)C(=O)N[C@@H](Cc1c[nH]c2ccccc12)C(=O)N[C@@H](Cc1ccccc1)C(=O)N[C@@H](CCCCN)C(=O)N[C@@H](C)C(=O)N[C@@H](Cc1ccccc1)C(=O)N[C@@H](Cc1ccc(O)cc1)C(=O)N[C@@H](CC(=O)O)C(=O)N[C@@H](CCCCN)C(=O)N[C@H](C(=O)N[C@@H](C)C(=O)N[C@@H](CCC(=O)O)C(=O)N[C@@H](CCCCN)C(=O)N[C@@H](Cc1ccccc1)C(=O)N[C@@H](CCCCN)C(=O)N[C@@H](CCC(=O)O)C(=O)N[C@@H](C)C(=O)N[C@@H](Cc1ccccc1)C(N)=O)C(C)C)C(C)C)C(C)C` [ApoA1 PA] (Palmitoyl-VVAAEEGDWFKAFYDKVAEKFKEAF-NH2), the “Diameter (nm) Average” value [1] was 9.6 nm, the “Diameter (nm) Median” value [1] was 9.5 nm and the “Length (nm) Average” value [1] was 626.9 nm. For the same compound, the “Length (nm) Median” value [1] was 615.9 nm, the “Diameter (nm) Average” value ([1]; listed as ApoA1) was 9.6±1.7 nm and the “Length (nm) Median” value ([1]; listed as ApoA1) was 616 nm. For the same compound, the “detection in the lung, liver, and kidney” value ([2]; 1-14 days post injection) was “minimal detection”, the “time when red fluorescent pixels returned to non-injected control levels” value ([2]; all internal organs, post injection) was 10 to 14 days and the “time of detection in the spleen” value ([2]; post injection) was 1 to 10 days.

For “10% MMP-Ac2-26 PA: co-assembly of 10 mol % MMP-Ac2-26 PA, 50 mol % E2 filler PA, and 40% ApoA1 PA (VVAAEEGGGPQGIWGQGKAMVSEFLKQAWFIENEEQEYVQTVK)”, the “intracellular iNOS expression of stimulated macrophages” value [3] was “no effect upon iNOS expression”, the “average Manders coefficient, LAMP1 to PA colocalization” value (J774.2 macrophages; 24 hours of treatment) was 0.79 and the “average Manders coefficient, PA to LAMP1 colocalization” value (J774.2 macrophages; 24 hours of treatment) was 0.48. For the same compound, the “cellular retention of PAs” value (J774.2 macrophages; confocal microscopy) was “found in the extracellular space”, the “SAXS slope of Guinier regime in the low q region” value ([4]; 5 mM in PBS) was −1.8 and the “core radius (polydisperse core-shell cylinder model)” value ([4]; SAXS fit) was 2.1 nm. For the same compound, the “radial shell thickness (polydisperse core-shell cylinder model)” value ([4]; SAXS fit) was 2.0 nm.
